From article PMC9692511, “Coumarin-Based Dual Inhibitors of Human Carbonic Anhydrases and Monoamine Oxidases Featuring Amino Acyl and (Pseudo)-Dipeptidyl Appendages: In Vitro and Computational Studies” (Molecules, 2022)
Several values for one entry are separate records, joined by “and”; a condition that tells them apart may be missing. Equal values may be shown once. Read-outs that look alike come from different tables or passages of the source.

Assays:
hCA I = target: T1, hCA I (Homo sapiens, UniProt P00915); test: hCA I inhibition, stopped-flow CO2 hydration assay; format: biochemical; conditions: stopped-flow technique, mean of three independent experiments
T1 construct: made in house
T1 sequence (P00915 whole entry): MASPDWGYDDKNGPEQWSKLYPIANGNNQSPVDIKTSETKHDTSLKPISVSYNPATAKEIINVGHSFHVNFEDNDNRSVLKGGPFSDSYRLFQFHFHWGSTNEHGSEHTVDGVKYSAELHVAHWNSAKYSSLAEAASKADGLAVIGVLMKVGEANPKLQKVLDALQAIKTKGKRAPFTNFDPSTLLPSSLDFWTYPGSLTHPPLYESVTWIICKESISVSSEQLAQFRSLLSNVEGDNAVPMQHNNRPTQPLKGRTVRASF
Method: (§1) An Applied Photophysics stopped-flow instrument was used for measuring hCA-catalyzed CO2 hydration activity. […] However, the background activity from the uncatalyzed reaction was always subtracted when IC50 values were obtained by using the data analysis software for the stopped-flow instrument. […] The uncatalyzed rates were measured in the same manner and were subtracted from the total observed rates. Stock solutions of the inhibitor (0.1 mM) were prepared in distilled-deionized water, and dilutions up to 0.01 nM were performed thereafter with the assay buffer. Inhibitor and enzyme solutions were preincubated together for 15 min at room temperature prior to the assay, to allow for the formation of the E–I complex. The inhibition constants (Ki) were obtained by the nonlinear least-squares methods using PRISM 3 and the Cheng-Prusoff equation as reported earlier and are presented as the mean from at least three different determinations. All hCA isoforms were recombinant proteins obtained in-house, as reported earlier.

hCA II = target: T2, hCA II (Homo sapiens, UniProt P00918); test: hCA II inhibition, stopped-flow CO2 hydration assay; format: biochemical; conditions: stopped-flow technique, mean of three independent experiments
T2 construct: made in house
Method: as §1

hCA IX = target: T3, hCA IX (Homo sapiens, UniProt Q16790); test: hCA IX inhibition, stopped-flow CO2 hydration assay; format: biochemical; conditions: for Ki: stopped-flow technique, mean of three independent experiments
T3 construct: made in house
Method: as §1

hCA XII = target: T4, hCA XII (Homo sapiens, UniProt O43570); test: hCA XII inhibition, stopped-flow CO2 hydration assay; format: biochemical; conditions: for SI hCA XII over hCA I or hCA II: Ki hCA I or II (nM)/Ki hCA XII (nM); for SI hCA XII over hCA IX: Ki hCA IX (nM)/Ki hCA XII (nM)
T4 construct: made in house
T4 sequence (O43570 25-354): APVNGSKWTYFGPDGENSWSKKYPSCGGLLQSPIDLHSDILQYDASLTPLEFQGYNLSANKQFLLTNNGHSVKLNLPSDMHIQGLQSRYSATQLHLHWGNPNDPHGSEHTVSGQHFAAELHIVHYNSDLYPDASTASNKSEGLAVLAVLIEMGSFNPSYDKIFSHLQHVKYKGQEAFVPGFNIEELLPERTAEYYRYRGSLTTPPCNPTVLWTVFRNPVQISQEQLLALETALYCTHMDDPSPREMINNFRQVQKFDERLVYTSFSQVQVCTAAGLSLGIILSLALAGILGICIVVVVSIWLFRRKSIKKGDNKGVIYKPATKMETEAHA
Method: as §1

hMAO-A = target: T5, hMAO-A (Homo sapiens, UniProt P21397); test: hMAO-A inhibition, kynuramine fluorescence assay; format: biochemical
T5 construct: purchased Sigma-Aldrich
T5 sequence (P21397 1-527): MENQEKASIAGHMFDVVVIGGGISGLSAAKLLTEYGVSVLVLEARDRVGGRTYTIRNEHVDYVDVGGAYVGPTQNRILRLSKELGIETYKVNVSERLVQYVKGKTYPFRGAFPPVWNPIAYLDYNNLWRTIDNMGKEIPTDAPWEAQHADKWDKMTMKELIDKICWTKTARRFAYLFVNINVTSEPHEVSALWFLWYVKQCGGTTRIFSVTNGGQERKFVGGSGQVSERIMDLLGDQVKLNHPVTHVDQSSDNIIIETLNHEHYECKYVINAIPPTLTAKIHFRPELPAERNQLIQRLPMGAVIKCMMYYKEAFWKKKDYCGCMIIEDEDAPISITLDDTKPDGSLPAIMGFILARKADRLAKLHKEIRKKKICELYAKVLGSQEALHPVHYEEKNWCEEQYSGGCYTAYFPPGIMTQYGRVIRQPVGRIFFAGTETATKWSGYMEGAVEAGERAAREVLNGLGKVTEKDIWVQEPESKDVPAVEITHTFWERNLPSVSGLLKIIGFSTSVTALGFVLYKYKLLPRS
Method: (§2) Activity measurements (IC50) for hMAO-A and hMAO-B were carried out as reported in the literature. Recombinant human MAO-A and MAO-B were obtained commercially (Sigma-Aldrich, Cape Town, South Africa) and were used as enzyme sources. Kynuramine is a non-specific substrate and serves as a substrate for both hMAO isoforms. The hMAOs metabolize kynuramine to produce 4-hydroxyquinoline, which was measured at the endpoint of the enzyme reactions by fluorescence spectrophotometry.

hMAO-B = target: T6, hMAO-B (Homo sapiens, UniProt P27338); test: hMAO-B inhibition, kynuramine fluorescence assay; format: biochemical; conditions: recombinant human MAO-B, kynuramine substrate; mean ± SD of three independent experiments
T6 construct: purchased Sigma-Aldrich
T6 sequence (P27338 1-520): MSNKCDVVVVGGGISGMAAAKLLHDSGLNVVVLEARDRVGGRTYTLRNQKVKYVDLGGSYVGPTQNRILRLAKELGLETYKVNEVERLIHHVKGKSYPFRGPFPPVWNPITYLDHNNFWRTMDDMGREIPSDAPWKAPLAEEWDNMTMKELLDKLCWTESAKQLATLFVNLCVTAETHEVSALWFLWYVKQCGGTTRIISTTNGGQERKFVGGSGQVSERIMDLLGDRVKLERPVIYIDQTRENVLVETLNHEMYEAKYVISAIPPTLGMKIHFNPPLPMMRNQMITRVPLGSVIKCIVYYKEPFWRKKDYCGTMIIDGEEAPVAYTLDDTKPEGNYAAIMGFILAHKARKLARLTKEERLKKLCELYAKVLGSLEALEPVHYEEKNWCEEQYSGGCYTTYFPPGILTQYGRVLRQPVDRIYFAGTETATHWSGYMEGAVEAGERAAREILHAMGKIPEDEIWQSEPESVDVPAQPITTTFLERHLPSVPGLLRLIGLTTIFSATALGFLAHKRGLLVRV
Method: as §2

[1] = Ki hCA I or II (nM)/Ki hCA IX (nM)
[2] = stopped-flow technique, mean of three independent experiments, read-out: Ki hCA XII
[3] = recombinant human MAO-A, kynuramine substrate, mean ± SD of three independent experiments

Compound	Ki (hCA I) [µM]	Ki (hCA II) [µM]	SI hCA IX over hCA I or hCA II (hCA IX; [1])	Ki (hCA IX) [nM]	SI hCA XII over hCA I or hCA II (hCA XII)	SI hCA XII over hCA IX (hCA XII)	Ki (hCA XII; [2]) [nM]	SI MAO-B/MAO-A (hMAO-A; IC50 MAO-B/IC50 MAO-A, selectivity for hMAO-A)	IC50 (hMAO-A; [3])	IC50 (hMAO-B) [µM]	Ki (hCA XII) [nM]	melting point [°C]	SI hCA IX over hCA I or hCA II (hCA IX)	MAO-A (IC50 μM) (hMAO-A; [3])	MAO-B (IC50 μM) (hMAO-B)
CC(=O)N[C@@H](C)C(=O)Nc1ccc2c(C)cc(=O)oc2c1 [Compound 6, Ac-Ala-AMC]	> 10	> 10	>427.3	23.4	>327.9	0.8	30.5	52	< 10 µM and 1.92 µM	> 100	–	–	–	–	–
COC(=O)CNC(=O)N[C@@H](C)C(=O)Nc1ccc2c(C)cc(=O)oc2c1 [Compound 16, MeO-Gly-CO-Ala-AMC]	> 10	> 10	>54.6	183	>261.8	4.8	–	–	< 10 µM and 5.91 µM	> 100	38.2	193 to 195	–	–	–
COC(=O)[C@H](C)NC(=O)N[C@@H](C)C(=O)Nc1ccc2c(C)cc(=O)oc2c1 [Compound 17, MeO-Ala-CO-Ala-AMC]	> 10	> 10	>61.2	163	>1041.7	17.0	–	–	69.6 ± 9.28 µM	58.6 ± 24	9.6	193 to 195	–	–	–
CCC(C)C(NC(=O)OCc1ccccc1)C(=O)Nc1ccc2c(COC)cc(=O)oc2c1 (stereo not drawn) [Compound 8, Z-Ile-AMMC]	> 10	> 10	>127.1	78.7	>241.0	1.9	–	–	47 ± 13.5 µM	> 100	41.5	–	–	–	–
COC(=O)[C@H](Cc1ccccc1)NC(=O)N[C@@H](C)C(=O)Nc1ccc2c(C)cc(=O)oc2c1 [Compound 18, MeO-Phe-CO-Ala-AMC]	> 10	> 10	>106.8	93.6	>250.0	2.3	–	–	21.8 ± 0.092 µM	78 ± 22.3	40	177 to 183	–	–	–
Cc1cc(=O)oc2cc(NC(=O)[C@H](C)NC(=O)OCC3c4ccccc4-c4ccccc43)ccc12 [Compound 2, Fmoc-Ala-AMC]	> 10	> 10	>109.9	91	>268.8	2.4	–	–	54.8 ± 0.028 µM	> 100	37.2	153 to 155	–	–	–
COCc1cc(=O)oc2cc(NC(=O)[C@@H](NC(=O)[C@H](C)NC(=O)OCc3ccccc3)C(C)(C)C)ccc12 [Compound 11, Z-Ala-tLeu-AMMC]	> 10	> 10	>58.3	172	>29.7	0.5	–	–	41.3 ± 17.8 µM	79.5 ± 7.24	336	205 to 209	–	–	–
COCc1cc(=O)oc2cc(NC(=O)[C@H](C)NC(=O)N[C@@H](C)C(=O)OC)ccc12 [Compound 20, MeO-Ala-CO-Ala-AMMC]	> 10	> 10	>370.4	27	>182.8	0.5	–	–	> 100 µM	75.3 ± 0.976	54.7	148 to 150	–	–	–
COCc1cc(=O)oc2cc(NC(=O)[C@H](C)NC(C)=O)ccc12 [Compound 7, Ac-Ala-AMMC]	> 10	> 10	>340.1	29.4	>213.7	0.6	46.8	–	12 ± 0.693 µM	45.6 ± 1.85	–	–	–	–	–
Cc1cc(=O)oc2cc(NC(=O)[C@H](C)NC(=O)OCc3ccccc3)ccc12 [Compound 1, Z-Ala-AMC]	> 10	> 10	–	30.5	>90.9	0.3	–	–	< 10 µM and 9.31 µM	> 100	–	–	>327.9	–	–
CCOC(=O)CCNC(=O)N[C@@H](C)C(=O)Nc1ccc2c(C)cc(=O)oc2c1 [Compound 19, EtO-βAla-CO-Ala-AMC]	> 10	> 10	>38.4	261	>1052.6	27.4	–	–	> 100 µM	> 100	9.5	182 to 183	–	completely devoid of activity	completely devoid of activity
